Tests used:
[1] = target: T1, Phospho-EGFR (Tyr1068) in H1975 cells (Homo sapiens, UniProt P00533, L858R/T790M); assay: HTRF pEGFR/total EGFR in H1975 cells; type: cell-based; settings: ratio pEGFR/total EGFR, compound 3 hours
T1 construct: host or cells: H1975
Experimental: (§1) H1975 cells (ATCC CRL-5908) were plated at 20,000 cells per well in 96 well plates and placed at 37° C. 5% CO2. Once adhered (after 24 h) cells were treated with compounds dissolved in DMSO at a final concentration of 0.1% DMSO in media. Compounds were diluted in media then added to cells for 3 hours in duplicate. Compound and media were removed from the cells, then 50 ul of HTRF lysis buffer is added (lysis buffer was diluted from 4× stock to 1× in DI water, with 1% blocking agent also added). Cells were lysed on a plate shaker (2000 rpm) for 30 minutes at room temperature. pEGFR expression was monitored using the Cisbio Phospho-EGFR (Tyri068) cellular kit (64EG1PEH). Total EGFR expression was monitored using the Cisbio Total EGFR cellular kit (64NG1PEH) as per manufacturer's instructions. Fluorescence emission was read at two different wavelengths (665 nm and 620 nm) on a PheraStar. Results were calculated as ratio of pEGFR/total EGFR and then percentage of 0 μM control.

[2] = target: CtermHisTag-mEGFR Wild type (Homo sapiens, UniProt P00533); assay: biochemical
[3] = target: T2, Phospho-EGFR (Tyr1068) in A431 cells (Homo sapiens, UniProt P00533); assay: HTRF pEGFR/total EGFR in A431 cells with EGF stimulation; type: cell-based; settings: ratio pEGFR/total EGFR, compound 2.5 hours then 100 ng/ml EGF 30 mins
T2 construct: endogenous in cells; host or cells: A431
Experimental: Cells were plated at 20,000 cells per well in 96 well plates and placed at 37° C. 5% CO2. Once adhered (after 24 h) cells were treated with compounds dissolved in DMSO at a final concentration of 0.1% DMSO in media. Compounds were diluted in media then added to cells for 2.5 hours in duplicate, 100 ng/ml EGF (ThermoFisher, PHG0311) was added to all compound treated cells as well as a control for 30 mins. Compound and media were removed from the cells, then 50 ul of HTRF lysis buffer was added (lysis buffer was diluted from 4× stock to 1× in DI water, with 1% blocking agent also added). Cells were lysed on a plate shaker (2000 rpm) for 30 minutes at room temperature. pEGFR expression was monitored using the Cisbio Phospho-EGFR (Tyr1068) cellular kit (64EG1PEH). Total EGFR expression was monitored using the Cisbio Total EGFR cellular kit (64NG1PEH) as per manufacturer's instructions. Fluorescence emission was read at two different wavelengths (665 nm and 620 nm) on a PheraStar. Results were calculated as ratio of pEGFR/total EGFR and then percentage of 0 μM control.

[4] = target: T3, Phospho-EGFR (Tyr1068) in H1975 C797S cells (CRISPR-edited EGFR C797S) (Homo sapiens, UniProt P00533, C797S/L858R/T790M); assay: HTRF pEGFR/total EGFR in H1975 C797S cells; type: cell-based; settings: ratio pEGFR/total EGFR, compound 3 hours
T3 construct: host or cells: H1975 C797S (CRISPR-edited)
Experimental: as §1, with “[…]. Once” for “H1975 cells (ATCC CRL-5908) were plated at 20,000 cells per well in 96 well plates and placed at 37° C. 5% CO2. Once”, “buffer was” for “buffer is”, “Phospho-EGFR (Tyr1068)” for “Phospho-EGFR (Tyri068)”

T1 sequence (P00533 25-1210 T790M/L858R): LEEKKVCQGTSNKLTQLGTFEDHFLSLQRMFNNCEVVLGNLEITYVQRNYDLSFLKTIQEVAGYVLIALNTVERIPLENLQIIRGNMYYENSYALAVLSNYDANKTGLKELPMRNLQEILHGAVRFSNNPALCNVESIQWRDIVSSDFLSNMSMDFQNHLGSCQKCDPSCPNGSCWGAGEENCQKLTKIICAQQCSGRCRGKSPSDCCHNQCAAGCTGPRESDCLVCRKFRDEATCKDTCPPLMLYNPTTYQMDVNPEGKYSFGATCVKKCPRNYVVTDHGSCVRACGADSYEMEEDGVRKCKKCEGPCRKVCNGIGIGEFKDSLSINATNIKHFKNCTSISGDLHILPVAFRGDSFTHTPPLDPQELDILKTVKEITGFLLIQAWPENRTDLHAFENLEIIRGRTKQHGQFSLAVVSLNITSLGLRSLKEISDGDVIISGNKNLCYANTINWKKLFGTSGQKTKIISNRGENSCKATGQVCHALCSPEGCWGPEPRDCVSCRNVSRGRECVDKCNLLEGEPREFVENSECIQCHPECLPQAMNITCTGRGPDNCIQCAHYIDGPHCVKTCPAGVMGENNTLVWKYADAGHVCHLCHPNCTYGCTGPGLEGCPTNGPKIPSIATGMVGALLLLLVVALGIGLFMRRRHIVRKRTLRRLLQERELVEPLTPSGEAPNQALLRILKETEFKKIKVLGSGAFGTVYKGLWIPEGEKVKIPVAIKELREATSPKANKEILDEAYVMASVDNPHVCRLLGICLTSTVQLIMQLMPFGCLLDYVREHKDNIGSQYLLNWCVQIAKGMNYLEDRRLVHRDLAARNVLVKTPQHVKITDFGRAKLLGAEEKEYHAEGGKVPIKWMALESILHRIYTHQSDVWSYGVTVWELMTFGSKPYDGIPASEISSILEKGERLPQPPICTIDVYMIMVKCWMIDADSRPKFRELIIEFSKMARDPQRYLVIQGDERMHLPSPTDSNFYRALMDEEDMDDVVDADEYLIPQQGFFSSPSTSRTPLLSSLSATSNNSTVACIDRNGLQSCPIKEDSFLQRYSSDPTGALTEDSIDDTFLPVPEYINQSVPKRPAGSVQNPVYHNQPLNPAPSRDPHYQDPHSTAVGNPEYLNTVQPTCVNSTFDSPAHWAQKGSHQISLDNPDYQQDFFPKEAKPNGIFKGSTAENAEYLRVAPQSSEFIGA
T3 sequence (P00533 25-1210 T790M/C797S/L858R): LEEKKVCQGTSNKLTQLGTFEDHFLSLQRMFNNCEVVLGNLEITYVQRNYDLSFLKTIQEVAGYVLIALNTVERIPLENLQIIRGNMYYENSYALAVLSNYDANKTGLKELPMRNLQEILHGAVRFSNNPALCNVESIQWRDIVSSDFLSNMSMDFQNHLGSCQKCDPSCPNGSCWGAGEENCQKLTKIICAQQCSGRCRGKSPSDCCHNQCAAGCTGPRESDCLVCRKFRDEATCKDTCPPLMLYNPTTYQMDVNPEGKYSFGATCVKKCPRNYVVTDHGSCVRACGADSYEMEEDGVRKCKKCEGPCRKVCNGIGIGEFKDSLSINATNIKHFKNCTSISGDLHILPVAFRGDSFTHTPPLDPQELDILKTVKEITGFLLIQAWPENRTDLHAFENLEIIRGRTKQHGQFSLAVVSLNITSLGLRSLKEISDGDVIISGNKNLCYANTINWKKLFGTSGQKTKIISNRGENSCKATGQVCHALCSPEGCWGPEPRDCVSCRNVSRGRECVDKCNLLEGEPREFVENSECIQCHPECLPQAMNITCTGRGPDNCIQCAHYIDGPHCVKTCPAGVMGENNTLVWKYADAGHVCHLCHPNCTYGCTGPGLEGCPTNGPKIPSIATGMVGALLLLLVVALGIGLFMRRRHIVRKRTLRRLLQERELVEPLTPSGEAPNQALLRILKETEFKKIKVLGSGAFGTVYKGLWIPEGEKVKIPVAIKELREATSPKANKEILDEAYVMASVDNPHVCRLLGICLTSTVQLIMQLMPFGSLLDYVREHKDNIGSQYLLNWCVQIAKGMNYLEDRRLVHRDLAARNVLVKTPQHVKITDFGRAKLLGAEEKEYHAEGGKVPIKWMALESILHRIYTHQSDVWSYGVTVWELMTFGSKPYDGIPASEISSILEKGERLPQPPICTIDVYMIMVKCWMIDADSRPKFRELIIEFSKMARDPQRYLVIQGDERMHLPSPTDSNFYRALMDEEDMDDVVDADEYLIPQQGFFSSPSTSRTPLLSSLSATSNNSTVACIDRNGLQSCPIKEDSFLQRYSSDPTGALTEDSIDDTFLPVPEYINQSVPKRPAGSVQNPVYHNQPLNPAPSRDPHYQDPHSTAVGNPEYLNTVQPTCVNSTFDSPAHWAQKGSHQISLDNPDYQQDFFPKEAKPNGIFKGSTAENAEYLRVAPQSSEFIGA
CtermHisTag-mEGFR Wild type, sequence (P00533 whole entry): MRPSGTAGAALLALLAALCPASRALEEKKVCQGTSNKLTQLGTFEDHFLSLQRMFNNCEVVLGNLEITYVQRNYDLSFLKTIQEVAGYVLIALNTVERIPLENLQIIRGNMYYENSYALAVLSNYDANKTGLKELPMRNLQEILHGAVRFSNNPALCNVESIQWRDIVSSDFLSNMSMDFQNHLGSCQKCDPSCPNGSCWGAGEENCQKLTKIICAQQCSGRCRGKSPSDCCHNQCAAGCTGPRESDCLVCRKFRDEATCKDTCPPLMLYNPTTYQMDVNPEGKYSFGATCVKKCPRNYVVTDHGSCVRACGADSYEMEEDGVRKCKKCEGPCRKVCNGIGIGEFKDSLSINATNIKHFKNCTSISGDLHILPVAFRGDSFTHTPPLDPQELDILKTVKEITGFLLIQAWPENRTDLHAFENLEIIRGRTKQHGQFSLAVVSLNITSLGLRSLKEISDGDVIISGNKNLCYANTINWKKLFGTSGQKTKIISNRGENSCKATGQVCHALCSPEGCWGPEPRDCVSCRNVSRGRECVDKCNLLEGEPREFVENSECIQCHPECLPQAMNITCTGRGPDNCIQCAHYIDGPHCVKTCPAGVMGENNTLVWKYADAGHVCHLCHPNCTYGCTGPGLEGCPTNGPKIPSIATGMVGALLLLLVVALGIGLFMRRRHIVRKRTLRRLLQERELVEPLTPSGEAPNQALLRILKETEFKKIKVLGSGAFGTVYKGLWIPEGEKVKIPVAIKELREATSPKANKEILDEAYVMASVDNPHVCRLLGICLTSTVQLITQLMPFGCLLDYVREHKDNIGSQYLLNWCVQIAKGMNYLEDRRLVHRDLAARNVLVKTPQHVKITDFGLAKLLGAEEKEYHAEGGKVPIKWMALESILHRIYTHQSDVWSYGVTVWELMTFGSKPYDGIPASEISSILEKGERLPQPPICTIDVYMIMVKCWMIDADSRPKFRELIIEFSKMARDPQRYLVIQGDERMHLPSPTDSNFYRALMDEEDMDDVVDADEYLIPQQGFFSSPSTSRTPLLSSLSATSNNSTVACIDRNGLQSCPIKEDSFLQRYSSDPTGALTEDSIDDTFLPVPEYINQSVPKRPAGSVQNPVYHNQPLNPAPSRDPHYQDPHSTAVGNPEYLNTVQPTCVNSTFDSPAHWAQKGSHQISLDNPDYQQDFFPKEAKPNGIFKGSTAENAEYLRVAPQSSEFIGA
T2 sequence (P00533 25-1210): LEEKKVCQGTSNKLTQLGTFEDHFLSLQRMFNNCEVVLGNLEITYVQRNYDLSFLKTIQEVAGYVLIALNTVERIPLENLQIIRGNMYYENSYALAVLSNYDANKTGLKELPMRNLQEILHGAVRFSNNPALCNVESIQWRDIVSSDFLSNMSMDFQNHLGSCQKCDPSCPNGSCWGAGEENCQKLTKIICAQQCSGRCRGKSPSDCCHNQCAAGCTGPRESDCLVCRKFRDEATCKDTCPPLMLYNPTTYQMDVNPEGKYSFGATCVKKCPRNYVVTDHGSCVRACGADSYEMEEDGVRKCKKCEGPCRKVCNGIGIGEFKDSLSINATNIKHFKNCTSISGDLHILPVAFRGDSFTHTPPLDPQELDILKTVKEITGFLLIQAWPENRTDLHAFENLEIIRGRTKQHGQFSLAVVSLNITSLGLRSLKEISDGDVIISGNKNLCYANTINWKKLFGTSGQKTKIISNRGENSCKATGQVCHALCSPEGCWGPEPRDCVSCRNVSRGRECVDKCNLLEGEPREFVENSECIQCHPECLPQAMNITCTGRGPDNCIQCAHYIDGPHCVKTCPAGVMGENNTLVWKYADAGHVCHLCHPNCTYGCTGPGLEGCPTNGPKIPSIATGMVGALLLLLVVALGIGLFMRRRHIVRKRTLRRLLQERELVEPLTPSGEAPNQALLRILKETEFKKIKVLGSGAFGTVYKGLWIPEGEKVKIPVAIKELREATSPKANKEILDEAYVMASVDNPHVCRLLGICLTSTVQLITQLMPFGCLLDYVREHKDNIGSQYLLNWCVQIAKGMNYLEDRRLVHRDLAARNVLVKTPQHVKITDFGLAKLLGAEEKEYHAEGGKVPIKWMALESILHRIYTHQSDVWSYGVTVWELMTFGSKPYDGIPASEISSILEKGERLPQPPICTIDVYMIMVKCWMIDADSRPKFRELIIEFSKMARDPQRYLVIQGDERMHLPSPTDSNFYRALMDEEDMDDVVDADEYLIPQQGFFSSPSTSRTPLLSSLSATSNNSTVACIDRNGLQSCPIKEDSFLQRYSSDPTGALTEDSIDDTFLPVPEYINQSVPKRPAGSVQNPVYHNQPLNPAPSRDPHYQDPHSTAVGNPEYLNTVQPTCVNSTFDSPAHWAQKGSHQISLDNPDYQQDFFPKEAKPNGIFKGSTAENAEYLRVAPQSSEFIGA

Compound	IC50 [1] [µM]	IC50 [2] [µM]	IC50 [3] [µM]	IC50 [4] [µM]
C#Cc1cc(=O)n(-c2ccccc2)c2cc(Nc3ccccc3OC)ncc12 [Example 3, 4-Ethynyl-7-[(2-methoxyphenyl)amino]-1-phenyl-1,6-naphthyridin-2-one]	> 3	> 10	> 3	> 3
C#Cc1cc(=O)n(-c2ccccc2)c2nc(Nc3ccc(N(C)C(=O)CN(C)C)cc3OC)ncc12 [Example 7, 2-(Dimethylamino)-N-(4-((5-ethynyl-7-oxo-8-phenyl-7,8-dihydropyrido[2,3-d]pyrimidin-2-yl)amino)-3-methoxyphenyl)-N-methylacetamide]	1 to 3	1 to 10	> 3	1 to 3
C#Cc1cc(=O)n(-c2ccccc2)c2nc(NC3CCN(S(C)(=O)=O)CC3)ncc12 [Example 10, 5-Ethynyl-2-((1-(methylsulfonyl)piperidin-4-yl)amino)-8-phenylpyrido[2,3-d]pyrimidin-7(8H)-one]	> 3	< 1	> 3	> 3
C#Cc1c(-c2c(Cl)cccc2Cl)c(=O)n(C)c2nc(Nc3cccc(CO)c3)ncc12 [Example 125, 6-(2,6-dichlorophenyl)-5-ethynyl-2-{[3-(hydroxymethyl)phenyl]amino}-8-methylpyrido[2,3-d]pyrimidin-7-one]	> 3	–	> 3	> 3
C=Cc1c(-c2c(Cl)cccc2Cl)c(=O)n(C)c2nc(Nc3cccc(CO)c3)ncc12 [Example 164, 6-(2,6-dichlorophenyl)-5-ethenyl-2-{[3-(hydroxymethyl)phenyl]amino}-8-methylpyrido[2,3-d]pyrimidin-7-one]	–	> 10	–	–
C=Cc1c(-c2ccccc2Cl)c(=O)n(C)c2nc(Nc3ccc(N(C)CCN(C)C)cc3)ncc12 [Example 165, 6-(2-chlorophenyl)-2-[(4-{[2-(dimethylamino)ethyl](methyl)amino}phenyl)amino]-5-ethenyl-8-methylpyrido[2,3-d]pyrimidin-7-one]	–	> 10	–	–
C=Cc1c(Cc2ccccc2)c(=O)n(C)c2nc(Nc3ccc(N(C)CCN(C)C)cc3)ncc12 [Example 166, 6-benzyl-2-[(4-{[2-(dimethylamino)ethyl](methyl)amino}phenyl)amino]-5-ethenyl-8-methylpyrido[2,3-d]pyrimidin-7-one]	–	> 10	–	–
C=Cc1c(-c2c(Cl)cccc2Cl)c(=O)n(C)c2nc(Nc3ccc(N(C)CCN(C)C)cc3)ncc12 [Example 167, 6-(2,6-dichlorophenyl)-2-[(4-{[2-(dimethylamino)ethyl](methyl)amino}phenyl)amino]-5-ethenyl-8-methylpyrido[2,3-d]pyrimidin-7-one]	–	> 10	–	–
C=Cc1c(-c2ccccc2Cl)c(=O)n(C)c2nc(Nc3cccc(OC)c3)ncc12 [Example 168, 6-(2-chlorophenyl)-5-ethenyl-2-[(3-methoxyphenyl)amino]-8-methylpyrido[2,3-d]pyrimidin-7-one]	–	> 10	–	–
C=Cc1c(-c2ccccc2Cl)c(=O)n(C)c2nc(Nc3cccc(CO)c3)ncc12 [Example 169, 6-(2-chlorophenyl)-5-ethenyl-2-{[3-(hydroxymethyl)phenyl]amino}-8-methylpyrido[2,3-]pyrimidin-7-one]	–	1 to 10	–	–
C=Cc1c(-c2ccccc2Cl)c(=O)n(C)c2nc(N)ncc12 [Example 173, 2-amino-6-(2-chlorophenyl)-5-ethenyl-8-methylpyrido[2,3-d]pyrimidin-7-one]	–	> 10	–	–
C=Cc1c(-c2ccccc2Cl)c(=O)n(C)c2nc(NCCCCN3CCN(C)CC3)ncc12 [Example 174, 6-(2-chlorophenyl)-8-methyl-2-((4-(4-methylpiperazin-1-yl)butyl)amino)-5-vinylpyrido[2,3-d]pyrimidin-7(8H)-one]	–	> 10	–	–
C#Cc1cc(=O)n(C2CCCC2)c2nc(Nc3ccccc3N3CCCC(CS(C)(=O)=O)C3)ncc12 (stereo not drawn) [Example 202, 8-Cyclopentyl-5-ethynyl-2-({2-[3-(methanesulfonylmethyl)piperidin-1-yl]phenyl}amino)pyrido[2,3-d]pyrimidin-7-one]	> 3	> 10	–	> 3
C#Cc1cc(=O)n(C2CCCC2)c2nc(Nc3cccc(N(C)[C@H]4CC[C@@H](CS(C)(=O)=O)CC4)c3)ncc12 [Example 204]	> 3	< 1	–	> 3
C#Cc1cc(=O)n2c3nc(ncc13)Nc1ccc(N3CCN(C)CC3)c(c1)OC[C@@H]1CC[C@@H](C1)C2 [Example 233, (5^1S,5^3R)-3^5-Ethynyl-1^4-(4-methylpiperazin-1-yl)-3^7,3^8-dihydro-7-oxa-2-aza-3(2,8)-pyrido[2,3-d]pyrimidina-1(1,3)-benzena-5(1,3)-cyclopentanacycloheptaphan-3^7-one]	< 0.5	< 1	–	< 0.5

Now from value to molecule:

IC50 [1] [µM]	IC50 [2] [µM]	IC50 [3] [µM]	IC50 [4] [µM]	Compound
< 0.5	< 1	1 to 3	< 0.5	C#Cc1cc(=O)n(-c2ccccc2)c2nc(Nc3ccc(N4CCOCC4)cc3)ncc12 [Example 6, 5-Ethynyl-2-((4-morpholinophenyl)amino)-8-phenylpyrido[2,3-d]pyrimidin-7(8H)-one]
< 0.5	< 1	> 3	< 0.5	C#Cc1cc(=O)n(-c2ccccc2)c2nc(Nc3ccc(N(C)CCCN(C)C)cc3)ncc12 [Example 9, 2-((4-((3-(Dimethylamino)propyl)(methyl)amino)phenyl)amino)-5-ethynyl-8-phenylpyrido[2,3-d]pyrimidin-7(8H)-one]
< 0.5	< 1	> 3	< 0.5	C#Cc1cc(=O)n(-c2ccccc2)c2nc(Nc3ccc(N4CCN(C)CC4)c(C)c3)ncc12 [Example 12, 5-Ethynyl-2-{[3-methyl-4-(4-methylpiperazin-1-yl)phenyl]amino}-8-phenylpyrido[2,3-d]pyrimidin-7-one]
< 0.5	< 1	> 3	< 0.5	C#Cc1cc(=O)n(-c2ccccc2)c2nc(Nc3ccc(N4CCNCC4)cc3)ncc12 [Example 14, 5-Ethynyl-8-phenyl-2-{[4-(piperazin-1-yl)phenyl]amino}pyrido[2,3-d]pyrimidin-7-one]
< 0.5	< 1	> 3	< 0.5	C#Cc1cc(=O)n(-c2ccccc2)c2nc(Nc3ccc(N4CCN(CC)CC4)cc3)ncc12 [Example 15, 2-{[4-(4-Ethylpiperazin-1-yl)phenyl]amino}-5-ethynyl-8-phenylpyrido[2,3-d]pyrimidin-7-one]
< 0.5	< 1	1 to 3	< 0.5	C#Cc1cc(=O)n(-c2ccccc2)c2nc(Nc3ccc(N4CCN(C(C)C)CC4)cc3)ncc12 [Example 16, 5-Ethynyl-2-{[4-(4-isopropylpiperazin-1-yl)phenyl]amino}-8-phenylpyrido[2,3-d]pyrimidin-7-one]
< 0.5	< 1	1 to 3	< 0.5	C#Cc1cc(=O)n(-c2ccccc2)c2nc(Nc3ccc(N4CCN(CCO)CC4)cc3)ncc12 [Example 17, 5-ethynyl-2-({4-[4-(2-hydroxyethyl)piperazin-1-yl]phenyl}amino)-8-phenylpyrido[2,3-d]pyrimidin-7-one]
